Experimental data as given in ChEMBL document CHEMBL1201862, “PubChem BioAssay data set” (2004).
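Method: 48-hour compound exposure of cells in 96-well plates, five concentrations, linear interpolation of endpoints. The concentration for 50% growth inhibition is given as GI50.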 Calls of active or inactive are those of the source. No stated cut-off is given here; in the data, active = GI50 up to about 1.1 µM and inactive = higher.

How the values were obtained:
Experiment in all cases: NCI-60 cell line screen, 48 h
XF498 = test system: XF498
KM12 = test system: KM12
A549 = test system: A549
OVCAR-3 = test system: OVCAR-3
HOP-62 = test system: HOP-62
RXF 631 = test system: RXF 631
SF-539 = test system: SF-539
OVCAR-4 = test system: OVCAR-4
COLO 205 = test system: COLO 205
LOX IMVI = test system: LOX IMVI
SNB-78 = test system: SNB-78
SNB-75 = test system: SNB-75
CCRF-CEM = test system: CCRF-CEM
M14 = test system: M14
U-251 = test system: U-251
TK-10 = test system: TK-10
HCC 2998 = test system: HCC 2998
SK-MEL-2 = test system: SK-MEL-2
DMS-114 = test system: DMS-114
UO-31 = test system: UO-31
Malme-3M = test system: Malme-3M
RXF 393 = test system: RXF 393
RPMI-8226 = test system: RPMI-8226
786-0 = test system: 786-0
OVCAR-8 = test system: OVCAR-8
SW-620 = test system: SW-620
NCI-H23 = test system: NCI-H23
IGROV-1 = test system: IGROV-1
ACHN = test system: ACHN
NCI-H460 = test system: NCI-H460
SN12C = test system: SN12C
HCT-116 = test system: HCT-116
UACC-257 = test system: UACC-257
LXFL 529 = test system: LXFL 529
HL-60 = test system: HL-60
MOLT-4 = test system: MOLT-4
DMS-273 = test system: DMS-273
K562 = test system: K562
A498 = test system: A498
UACC-62 = test system: UACC-62
SK-OV-3 = test system: SK-OV-3
EKVX = test system: EKVX
SK-MEL-5 = test system: SK-MEL-5
DLD-1 = test system: DLD-1
HT-29 = test system: HT-29
SK-MEL-28 = test system: SK-MEL-28
NCI-H522 = test system: NCI-H522
HOP-92 = test system: HOP-92
SF-295 = test system: SF-295
M19-MEL = test system: M19-MEL
NCI-H226 = test system: NCI-H226
CAKI-1 = test system: CAKI-1
SNB-19 = test system: SNB-19
HOP-18 = test system: HOP-18
OVCAR-5 = test system: OVCAR-5
SF-268 = test system: SF-268
SR = test system: SR
HCT-15 = test system: HCT-15
KM-20L2 = test system: KM-20L2
MCF7 = test system: MCF7
PC-3 = test system: PC-3
T47D = test system: T47D
BT-549 = test system: BT-549
DU-145 = test system: DU-145
MDA-N = test system: MDA-N
MDA-MB-231 = test system: MDA-MB-231
Hs-578T = test system: Hs-578T
NCI/ADR-RES = test system: NCI/ADR-RES
MDA-MB-435 = test system: MDA-MB-435

COC(=O)CCC(=O)Nc1cc(C)ccc1C
GI50 (XF498): > 100 µM (inactive) | GI50 (KM12): > 100 µM (inactive) | GI50 (A549): > 100 µM (inactive) | GI50 (OVCAR-3): > 100 µM (inactive) | GI50 (HOP-62): > 100 µM (inactive) | GI50 (RXF 631): > 100 µM (inactive) | GI50 (SF-539): > 100 µM (inactive) | GI50 (OVCAR-4): > 100 µM (inactive) | GI50 (COLO 205): > 100 µM (inactive) | GI50 (LOX IMVI): > 100 µM (inactive) | GI50 (SNB-78): > 100 µM (inactive) | GI50 (SNB-75): > 100 µM (inactive) | GI50 (CCRF-CEM): > 100 µM (inactive) | GI50 (M14): > 100 µM (inactive) | GI50 (U-251): > 100 µM (inactive) | GI50 (TK-10): > 100 µM (inactive) | GI50 (HCC 2998): > 100 µM (inactive) | GI50 (SK-MEL-2): > 100 µM (inactive) | GI50 (DMS-114): > 100 µM (inactive) | GI50 (UO-31): > 100 µM (inactive) | GI50 (Malme-3M): > 100 µM (inactive) | GI50 (RXF 393): > 100 µM (inactive) | GI50 (RPMI-8226): > 100 µM (inactive) | GI50 (786-0): > 100 µM (inactive) | GI50 (OVCAR-8): > 100 µM (inactive) | GI50 (SW-620): > 100 µM (inactive) | GI50 (NCI-H23): > 100 µM (inactive) | GI50 (IGROV-1): > 100 µM (inactive) | GI50 (ACHN): > 100 µM (inactive) | GI50 (NCI-H460): > 100 µM (inactive) | GI50 (SN12C): > 100 µM (inactive) | GI50 (HCT-116): > 100 µM (inactive) | GI50 (UACC-257): > 100 µM (inactive) | GI50 (LXFL 529): > 100 µM (inactive) | GI50 (HL-60): > 100 µM (inactive) | GI50 (MOLT-4): > 100 µM (inactive) | GI50 (DMS-273): > 100 µM (inactive) | GI50 (K562): > 100 µM (inactive) | GI50 (A498): > 100 µM (inactive) | GI50 (UACC-62): > 100 µM (inactive) | GI50 (SK-OV-3): > 100 µM (inactive) | GI50 (EKVX): > 100 µM (inactive) | GI50 (SK-MEL-5): > 100 µM (inactive) | GI50 (DLD-1): > 100 µM (inactive) | GI50 (HT-29): > 100 µM (inactive) | GI50 (SK-MEL-28): > 100 µM (inactive) | GI50 (NCI-H522): > 100 µM (inactive) | GI50 (HOP-92): > 100 µM (inactive) | GI50 (SF-295): > 100 µM (inactive) | GI50 (M19-MEL): > 100 µM (inactive) | GI50 (NCI-H226): > 100 µM (inactive) | GI50 (CAKI-1): > 100 µM (inactive) | GI50 (SNB-19): > 100 µM (inactive) | GI50 (HOP-18): > 100 µM (inactive)

N/C(=N\O)N/N=C/c1cccs1
GI50 (XF498): 98.9 µM (inactive) | GI50 (KM12): 49.1 µM (inactive) | GI50 (A549): 23.9 µM (inactive) | GI50 (OVCAR-3): 34.9 µM (inactive) | GI50 (OVCAR-5): 47.1 µM (inactive) | GI50 (HOP-62): 24.7 µM (inactive) | GI50 (SF-268): 17.2 µM (inactive) | GI50 (RXF 631): > 100 µM (inactive) | GI50 (SF-539): > 100 µM (inactive) | GI50 (SR): 67.3 µM (inactive) | GI50 (OVCAR-4): 34 µM (inactive) | GI50 (COLO 205): 55.7 µM (inactive) | GI50 (SNB-78): > 100 µM (inactive) | GI50 (SNB-75): 20 µM (inactive) | GI50 (CCRF-CEM): > 100 µM (inactive) | GI50 (M14): 47.1 µM (inactive) | GI50 (U-251): > 100 µM (inactive) | GI50 (TK-10): > 100 µM (inactive) | GI50 (HCC 2998): 33.4 µM (inactive) | GI50 (SK-MEL-2): 76.7 µM (inactive) | GI50 (DMS-114): 54.8 µM (inactive) | GI50 (UO-31): 55.1 µM (inactive) | GI50 (Malme-3M): 55.8 µM (inactive) | GI50 (RXF 393): > 100 µM (inactive) | GI50 (786-0): > 100 µM (inactive) | GI50 (OVCAR-8): 71.9 µM (inactive) | GI50 (SW-620): > 100 µM (inactive) | GI50 (NCI-H23): > 100 µM (inactive) | GI50 (IGROV-1): 35.4 µM (inactive) | GI50 (ACHN): 42.3 µM (inactive) | GI50 (NCI-H460): 33.7 µM (inactive) | GI50 (SN12C): 59.8 µM (inactive) | GI50 (HCT-116): > 100 µM (inactive) | GI50 (UACC-257): > 100 µM (inactive) | GI50 (LXFL 529): 32.4 µM (inactive) | GI50 (HL-60): 28.1 µM (inactive) | GI50 (DMS-273): > 100 µM (inactive) | GI50 (K562): 86.9 µM (inactive) | GI50 (A498): > 100 µM (inactive) | GI50 (UACC-62): 15.8 µM (inactive) | GI50 (SK-OV-3): 37.8 µM (inactive) | GI50 (EKVX): 23.7 µM (inactive) | GI50 (DLD-1): 59.6 µM (inactive) | GI50 (HCT-15): 79.1 µM | GI50 (HT-29): 45.1 µM (inactive) | GI50 (SK-MEL-28): > 100 µM (inactive) | GI50 (NCI-H522): 25.1 µM (inactive) | GI50 (HOP-92): > 100 µM (inactive) | GI50 (SF-295): > 100 µM (inactive) | GI50 (M19-MEL): > 100 µM (inactive) | GI50 (NCI-H226): 57.1 µM (inactive) | GI50 (CAKI-1): 34.4 µM (inactive) | GI50 (SNB-19): > 100 µM (inactive) | GI50 (HOP-18): 53.8 µM (inactive)

Oc1ccc(Cn2c(-c3ccc(O)cc3)nc3ccccc32)cc1
GI50 (XF498): > 100 µM (inactive) | GI50 (KM12): > 100 µM (inactive) | GI50 (A549): > 100 µM (inactive) | GI50 (KM-20L2): > 100 µM (inactive) | GI50 (OVCAR-3): > 100 µM (inactive) | GI50 (OVCAR-5): > 100 µM (inactive) | GI50 (HOP-62): > 100 µM (inactive) | GI50 (MCF7): > 100 µM (inactive) | GI50 (SF-268): > 100 µM (inactive) | GI50 (PC-3): > 100 µM (inactive) | GI50 (RXF 631): > 100 µM (inactive) | GI50 (SF-539): > 100 µM (inactive) | GI50 (SR): > 31.6 µM (inactive) | GI50 (OVCAR-4): > 100 µM (inactive) | GI50 (COLO 205): > 100 µM (inactive) | GI50 (LOX IMVI): > 100 µM (inactive) | GI50 (SNB-75): > 100 µM (inactive) | GI50 (CCRF-CEM): > 100 µM (inactive) | GI50 (M14): > 100 µM (inactive) | GI50 (U-251): > 100 µM (inactive) | GI50 (TK-10): > 100 µM (inactive) | GI50 (HCC 2998): > 100 µM (inactive) | GI50 (SK-MEL-2): > 100 µM (inactive) | GI50 (DMS-114): > 100 µM (inactive) | GI50 (T47D): > 100 µM (inactive) | GI50 (UO-31): > 100 µM (inactive) | GI50 (Malme-3M): > 100 µM (inactive) | GI50 (RXF 393): > 100 µM (inactive) | GI50 (RPMI-8226): > 100 µM (inactive) | GI50 (786-0): > 100 µM (inactive) | GI50 (OVCAR-8): > 100 µM (inactive) | GI50 (SW-620): > 100 µM (inactive) | GI50 (BT-549): > 100 µM (inactive) | GI50 (DU-145): > 100 µM (inactive) | GI50 (MDA-N): > 100 µM (inactive) | GI50 (NCI-H23): > 100 µM (inactive) | GI50 (IGROV-1): > 100 µM (inactive) | GI50 (ACHN): > 100 µM (inactive) | GI50 (NCI-H460): > 100 µM (inactive) | GI50 (SN12C): > 100 µM (inactive) | GI50 (HCT-116): > 100 µM (inactive) | GI50 (MDA-MB-231): > 100 µM (inactive) | GI50 (UACC-257): > 100 µM (inactive) | GI50 (LXFL 529): > 100 µM (inactive) | GI50 (HL-60): > 31.6 µM (inactive) | GI50 (Hs-578T): > 100 µM (inactive) | GI50 (MOLT-4): > 100 µM (inactive) | GI50 (DMS-273): > 100 µM (inactive) | GI50 (K562): > 100 µM (inactive) | GI50 (A498): > 100 µM (inactive) | GI50 (UACC-62): > 100 µM (inactive) | GI50 (SK-OV-3): > 100 µM (inactive) | GI50 (EKVX): > 100 µM (inactive) | GI50 (NCI/ADR-RES): > 100 µM (inactive) | GI50 (SK-MEL-5): > 100 µM (inactive) | GI50 (DLD-1): > 100 µM (inactive) | GI50 (HCT-15): > 100 µM | GI50 (HT-29): > 100 µM (inactive) | GI50 (SK-MEL-28): > 100 µM (inactive) | GI50 (NCI-H522): > 100 µM (inactive) | GI50 (HOP-92): > 100 µM (inactive) | GI50 (SF-295): > 100 µM (inactive) | GI50 (MDA-MB-435): > 100 µM (inactive) | GI50 (M19-MEL): > 100 µM (inactive) | GI50 (NCI-H226): > 100 µM (inactive) | GI50 (CAKI-1): > 100 µM (inactive) | GI50 (SNB-19): > 100 µM (inactive)
